Results: patent US20200278355A1, “CONJUGATED PROTEINS AND USES THEREOF” (THE SCRIPPS RESEARCH INSTITUTE, priority 2017, published 2020)

Legend:
[1] = biological target: T1, interactions of FLAG-tagged RBM45 or SNW1 with endogenous NR0B1 (Homo sapiens, UniProt P51843); test: NR0B1 protein interactions in compound-treated cells (FLAG immunoprecipitation, immunoblot); type: cell-based; details: for blockade of interactions of FLAG-tagged RBM45 or SNW1 with endogenous NR0B1: KEAP1-null HEK293T cells and KEAP1-mutant NSCLC cells; for blockade of interactions of FLAG-tagged RBM45 or SNW1 with endogenous NR0B1 / inhibition of NR0B1 interaction with FLAG-RBM45 or FLAG-SNW1: 3 h; for inhibition of NR0B1 interaction with FLAG-RBM45 or FLAG-SNW1: KEAP1-null HEK293T cells
T1 construct: endogenous in cells; host or cells: KEAP1-null HEK293T cells stably expressing FLAG-RBM45 or FLAG-SNW1
T1 sequence (P51843 1-470): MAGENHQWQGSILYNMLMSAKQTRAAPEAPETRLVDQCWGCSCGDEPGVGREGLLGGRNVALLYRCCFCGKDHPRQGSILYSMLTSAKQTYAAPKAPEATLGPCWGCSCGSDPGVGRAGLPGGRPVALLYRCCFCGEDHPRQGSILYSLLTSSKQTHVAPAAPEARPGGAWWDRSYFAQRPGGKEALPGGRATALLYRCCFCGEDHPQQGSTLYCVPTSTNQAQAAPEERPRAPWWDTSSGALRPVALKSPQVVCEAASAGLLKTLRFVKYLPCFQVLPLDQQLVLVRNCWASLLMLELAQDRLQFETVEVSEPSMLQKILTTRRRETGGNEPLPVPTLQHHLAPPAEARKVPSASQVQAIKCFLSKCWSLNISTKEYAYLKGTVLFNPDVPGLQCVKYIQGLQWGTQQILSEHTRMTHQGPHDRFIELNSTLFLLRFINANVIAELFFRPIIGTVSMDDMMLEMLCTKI
Method: Confluent 10 cm plates of indicated cell lines were rinsed once with warm PBS and incubated in serum/dye-free RPMI with indicated compounds or vehicle for 3 h at 37° C. Cells were washed once ice-cold PBS and snap frozen.
Cells were rinsed once with ice-cold PBS, and lysed by sonication in Triton IP buffer. Lysates were clarified by centrifugation at 16,000×g for 10 min. Samples were normalized to 1 mg ml^−1 and boiled following the addition of sample buffer. For FLAG- or HA-immunoprecipitations, FLAG or HA resins (30 μL, 50:50 slurry) were added to the pre-cleared lysates and incubated with rotation for 3 hours at 4° C. Following immunoprecipitation, the beads were washed once with IP buffer followed by 3 times with IP buffer containing 500 mM NaCl. Loading buffer (40 μL) was added to the immunoprecipitated proteins which were subsequently denatured by boiling. Proteins were resolved by SDS-PAGE, analyzed by immunoblotting and relative band intensities were quantified using ImageJ software.
Next it was asked whether BPK-26 and BPK-29 inhibited NR0B1 protein interactions in cells using two complementary systems. […] In both cell systems, BPK-26 and BPK-29, but not control compounds, blocked the interactions of FLAG-tagged RMB45 or SNW1 with endogenous NR0B1 (FIG. 6C and FIG. 12E-F).

[2] = test system: cysteines in NSCLC cell proteomes (H460 cells); test: isoTOP-ABPP of compound-treated H460 cells, proteome-wide; type: cell-based, human; details: KEAP1-mutant NSCLCs
Method: For analysis of NR0B1 ligands or control compound reactivity, H460 cells or H460 cells expressing luciferase in a 10 cm plate were incubated with indicated compounds in serum/dye-free RPMI for 3 hours at 37° C. Cells were washed once ice-cold PBS and lysed in 1% Triton X-100 dissolved in PBS with protease inhibitors (Sigma) by sonication. Samples were clarified by centrifugation for 10 min at 16,000×g. Lysate was adjusted to 1.5 mg ml^−1 in 500 μL.
Samples were labeled for 1 h at ambient temperature with 100 μM iodoacetamide alkyne (1, IA-alkyne, 5 μL of 10 mM stock in DMSO). Samples were conjugated by copper-catalyzed azide-alkyne cycloaddition (CuAAC) to isotopically labeled, TEV-cleavable tags (TEV-tags). Heavy CuAAC reaction mixtures was added to the DMSO-treated or shGFP control samples and light CuAAC reaction mixture was added to compound-treated or shNRF2 samples. The CuAAC reaction mixture consisted of TEV tags (light or heavy, 10 μL of 5 mM stocks in DMSO, final concentration=100 μM), 1 mM tris(2-carboxyethyl)phosphine hydrochloride (TCEP; fresh 50× stock in water, final concentration=1 mM), ligand (17× stock in DMSO:t-butanol 1:4, final concentration=100 μM) and 1 mM CuSO4 (50× stock in water, final concentration=1 mM). The samples were allowed to react for 1 h at which point the samples were centrifuged (16,000×g, 5 min, 4° C.). […]

Row | SMILES | blockade of interactions of FLAG-tagged RBM45 or SNW1 with endogenous NR0B1 [1] | inhibition of NR0B1 interaction with FLAG-RBM45 or FLAG-SNW1 [1] | overall proteomic selectivity [2] | relative potency for blockade of NR0B1-protein interactions ([1]; in cells)
1 | O=C(CCl)N(Cc1cccc(Cl)c1F)c1ccc(Cl)nc1 [BPK-26, 2-chloro-N-(3-chloro-2-fluorobenzyl)-N-(6-chloropyridin-3-yl)acetamide] | blocked | inhibit | good overall proteomic selectivity | –
2 | O=C(c1ccc(N2CCOCC2)cc1)N1CCCC(N(Cc2ccccc2)C(=O)CCl)CC1 (stereo not shown) [BPK-29, N-benzyl-2-chloro-N-(1-(4-morpholinobenzoyl)azepan-4-yl)acetamide] | blocked | inhibit | good overall proteomic selectivity | better potency than BPK-26
